Data published in US7419776B1, “Method of reducing pathogen load” (priority 1999, dated 2008).

Test system: Candida albicans
Experiment: Fungal load: patient with severe candidiasis (present-tense example)
Assay type: in vivo, human
Details: two weeks, before YG Product
Description: The following present-tense examples are intended to illustrate and summarize the teachings of the preceding examples that describe actual clinical data with over 100 AIDS and ARC patients.
The candidiasis clears. A dose is administered by one of the following routes: intradermally, subcutaneously, orally, transmucosally, sublingually, or transdermally.

OC(Cn1cncn1)(Cn1cncn1)c1ccc(F)cc1F [Fluconazole]
effect of antifungal treatment alone on severe candidiasis: without effect
